Experimental data: the kinase profiling compilation of Christmann-Franck et al. (2016)

Tests used:
Test in all cases: KINOMEscan competition binding
CSNK1G2 (human) = CSNK1G2 (human) (UniProt P78368)
FRK (human) = FRK (human) (UniProt P42685)
MAPK11 (human) = MAPK11 (human) (UniProt Q15759)
PAK3 (human) = PAK3 (human) (UniProt O75914)
STK36 (human) = STK36 (human) (UniProt Q9NRP7)
AAK1 (human) = AAK1 (human) (UniProt Q2M2I8)
AURKC (human) = AURKC (human) (UniProt Q9UQB9)
BMP2K (human) = BMP2K (human) (UniProt Q9NSY1)
CAMK2B (human) = CAMK2B (human) (UniProt Q13554)
CDK2 (human) = CDK2 (human) (UniProt P24941)
CDK5 (human) = CDK5 (human) (UniProt Q00535)
CLK4 (human) = CLK4 (human) (UniProt Q9HAZ1)
DAPK2 (human) = DAPK2 (human) (UniProt Q9UIK4)
Chain of DAPK2 (human) (Q9UIK4 whole entry, looked up): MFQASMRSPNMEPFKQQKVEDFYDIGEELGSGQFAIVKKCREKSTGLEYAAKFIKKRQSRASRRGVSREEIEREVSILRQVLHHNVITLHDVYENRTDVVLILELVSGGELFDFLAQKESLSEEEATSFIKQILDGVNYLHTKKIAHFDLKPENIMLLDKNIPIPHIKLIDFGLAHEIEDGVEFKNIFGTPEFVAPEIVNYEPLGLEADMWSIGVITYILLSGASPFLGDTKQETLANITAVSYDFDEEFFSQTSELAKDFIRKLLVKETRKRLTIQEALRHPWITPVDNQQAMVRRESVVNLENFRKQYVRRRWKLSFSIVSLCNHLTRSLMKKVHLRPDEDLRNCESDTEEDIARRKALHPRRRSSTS

DAPK3 (human) = DAPK3 (human) (UniProt O43293)
Chain of DAPK3 (human) (O43293 whole entry, looked up): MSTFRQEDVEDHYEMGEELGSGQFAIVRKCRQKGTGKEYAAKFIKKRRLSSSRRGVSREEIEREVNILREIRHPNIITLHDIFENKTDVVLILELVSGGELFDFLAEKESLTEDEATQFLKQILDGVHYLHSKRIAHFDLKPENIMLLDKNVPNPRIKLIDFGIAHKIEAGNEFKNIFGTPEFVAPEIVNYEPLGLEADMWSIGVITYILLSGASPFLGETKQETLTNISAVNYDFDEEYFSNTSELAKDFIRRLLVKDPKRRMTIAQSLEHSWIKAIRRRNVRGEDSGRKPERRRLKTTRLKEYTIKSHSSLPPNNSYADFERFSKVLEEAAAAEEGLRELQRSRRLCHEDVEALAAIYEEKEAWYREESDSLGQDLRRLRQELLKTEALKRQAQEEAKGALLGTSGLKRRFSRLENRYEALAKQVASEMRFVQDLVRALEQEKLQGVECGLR

MAP4K5 (human) = MAP4K5 (human) (UniProt Q9Y4K4)
MKNK2 (human) = MKNK2 (human) (UniProt Q9HBH9)
Chain of MKNK2 (human) (Q9HBH9 whole entry, looked up): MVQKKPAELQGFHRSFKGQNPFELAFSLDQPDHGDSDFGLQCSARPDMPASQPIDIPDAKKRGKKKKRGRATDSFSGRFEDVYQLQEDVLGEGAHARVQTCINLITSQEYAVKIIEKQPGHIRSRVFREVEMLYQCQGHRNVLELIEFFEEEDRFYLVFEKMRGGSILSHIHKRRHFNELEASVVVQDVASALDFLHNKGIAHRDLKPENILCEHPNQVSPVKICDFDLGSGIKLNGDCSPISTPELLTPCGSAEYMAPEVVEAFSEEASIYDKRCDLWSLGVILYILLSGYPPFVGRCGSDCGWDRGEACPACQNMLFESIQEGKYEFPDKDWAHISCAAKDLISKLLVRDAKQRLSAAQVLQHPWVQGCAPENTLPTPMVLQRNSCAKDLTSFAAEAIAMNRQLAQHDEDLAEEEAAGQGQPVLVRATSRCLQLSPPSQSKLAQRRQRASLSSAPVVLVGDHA

PHKG2 (human) = PHKG2 (human) (UniProt P15735)
Chain of PHKG2 (human) (P15735 whole entry, looked up): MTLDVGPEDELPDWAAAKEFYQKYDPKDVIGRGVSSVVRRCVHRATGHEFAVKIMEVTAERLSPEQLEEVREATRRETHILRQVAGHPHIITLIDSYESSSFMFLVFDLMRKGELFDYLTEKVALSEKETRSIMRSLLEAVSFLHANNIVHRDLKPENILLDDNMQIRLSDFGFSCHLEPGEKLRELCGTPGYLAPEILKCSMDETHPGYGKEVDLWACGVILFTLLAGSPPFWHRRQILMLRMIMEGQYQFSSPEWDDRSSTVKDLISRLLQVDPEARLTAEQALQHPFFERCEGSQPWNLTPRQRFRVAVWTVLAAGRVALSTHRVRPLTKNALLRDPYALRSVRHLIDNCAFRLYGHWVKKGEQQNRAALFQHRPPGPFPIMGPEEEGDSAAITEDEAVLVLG

PLK4 (human) = PLK4 (human) (UniProt O00444)
Chain of PLK4 (human) (O00444 whole entry, looked up): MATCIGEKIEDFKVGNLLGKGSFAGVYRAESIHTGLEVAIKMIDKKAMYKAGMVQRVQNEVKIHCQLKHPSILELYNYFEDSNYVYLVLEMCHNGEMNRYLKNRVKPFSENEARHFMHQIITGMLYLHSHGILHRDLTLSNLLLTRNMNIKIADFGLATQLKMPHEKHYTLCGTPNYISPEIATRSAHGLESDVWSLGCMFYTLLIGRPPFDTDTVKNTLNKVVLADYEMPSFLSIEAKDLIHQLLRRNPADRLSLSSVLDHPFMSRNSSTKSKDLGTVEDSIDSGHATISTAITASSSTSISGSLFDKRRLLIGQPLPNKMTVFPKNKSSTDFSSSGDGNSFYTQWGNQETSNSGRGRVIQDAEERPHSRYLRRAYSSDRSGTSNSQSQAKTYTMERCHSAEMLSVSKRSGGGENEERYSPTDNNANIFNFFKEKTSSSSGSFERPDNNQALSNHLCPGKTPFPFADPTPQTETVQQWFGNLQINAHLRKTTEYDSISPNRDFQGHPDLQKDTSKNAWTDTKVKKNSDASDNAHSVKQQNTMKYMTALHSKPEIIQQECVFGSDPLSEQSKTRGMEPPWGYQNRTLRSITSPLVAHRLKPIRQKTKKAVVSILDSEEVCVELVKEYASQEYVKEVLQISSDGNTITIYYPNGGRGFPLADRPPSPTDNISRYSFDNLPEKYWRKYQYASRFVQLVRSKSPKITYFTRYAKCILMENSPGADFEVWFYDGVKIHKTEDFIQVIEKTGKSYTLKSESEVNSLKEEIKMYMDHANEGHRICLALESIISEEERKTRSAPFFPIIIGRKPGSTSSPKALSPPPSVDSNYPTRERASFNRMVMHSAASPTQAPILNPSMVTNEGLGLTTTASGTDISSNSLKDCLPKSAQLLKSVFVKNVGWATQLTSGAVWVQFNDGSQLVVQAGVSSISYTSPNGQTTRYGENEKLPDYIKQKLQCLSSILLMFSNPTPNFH

RPS6KA2 KD1 (human) = RPS6KA2 KD1 (human) (UniProt Q15349)
STK17A (human) = STK17A (human) (UniProt Q9UEE5)
Chain of STK17A (human) (Q9UEE5 whole entry, looked up): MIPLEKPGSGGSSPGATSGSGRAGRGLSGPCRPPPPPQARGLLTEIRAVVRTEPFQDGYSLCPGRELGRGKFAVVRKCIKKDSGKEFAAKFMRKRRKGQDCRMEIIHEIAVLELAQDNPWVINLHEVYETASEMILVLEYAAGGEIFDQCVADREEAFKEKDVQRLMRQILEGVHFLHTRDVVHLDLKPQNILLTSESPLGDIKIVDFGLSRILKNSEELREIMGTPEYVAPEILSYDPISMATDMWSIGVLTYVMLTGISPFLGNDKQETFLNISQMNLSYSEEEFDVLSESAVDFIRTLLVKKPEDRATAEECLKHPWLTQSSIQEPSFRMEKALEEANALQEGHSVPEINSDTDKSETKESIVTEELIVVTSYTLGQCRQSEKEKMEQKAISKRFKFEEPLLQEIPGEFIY

STK3 (mouse) = details: accession and sequence are those of the human protein
STK4 (human) = STK4 (human) (UniProt Q13043)
Chain of STK4 (human) (Q13043 whole entry, looked up): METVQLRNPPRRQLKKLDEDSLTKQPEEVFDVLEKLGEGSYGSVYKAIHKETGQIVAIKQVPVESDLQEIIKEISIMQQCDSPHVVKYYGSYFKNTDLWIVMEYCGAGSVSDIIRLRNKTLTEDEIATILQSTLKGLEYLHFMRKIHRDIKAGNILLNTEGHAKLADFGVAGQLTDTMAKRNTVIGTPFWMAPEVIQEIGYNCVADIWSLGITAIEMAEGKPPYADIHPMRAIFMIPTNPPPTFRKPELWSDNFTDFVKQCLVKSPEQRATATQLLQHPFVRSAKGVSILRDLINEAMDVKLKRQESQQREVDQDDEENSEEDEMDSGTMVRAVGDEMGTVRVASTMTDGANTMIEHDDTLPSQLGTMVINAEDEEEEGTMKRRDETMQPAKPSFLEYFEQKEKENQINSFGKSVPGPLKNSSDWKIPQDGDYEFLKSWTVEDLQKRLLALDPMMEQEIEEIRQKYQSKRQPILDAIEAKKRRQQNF

TTK (human) = TTK (human) (UniProt P33981)
Chain of TTK (human) (P33981 whole entry, looked up): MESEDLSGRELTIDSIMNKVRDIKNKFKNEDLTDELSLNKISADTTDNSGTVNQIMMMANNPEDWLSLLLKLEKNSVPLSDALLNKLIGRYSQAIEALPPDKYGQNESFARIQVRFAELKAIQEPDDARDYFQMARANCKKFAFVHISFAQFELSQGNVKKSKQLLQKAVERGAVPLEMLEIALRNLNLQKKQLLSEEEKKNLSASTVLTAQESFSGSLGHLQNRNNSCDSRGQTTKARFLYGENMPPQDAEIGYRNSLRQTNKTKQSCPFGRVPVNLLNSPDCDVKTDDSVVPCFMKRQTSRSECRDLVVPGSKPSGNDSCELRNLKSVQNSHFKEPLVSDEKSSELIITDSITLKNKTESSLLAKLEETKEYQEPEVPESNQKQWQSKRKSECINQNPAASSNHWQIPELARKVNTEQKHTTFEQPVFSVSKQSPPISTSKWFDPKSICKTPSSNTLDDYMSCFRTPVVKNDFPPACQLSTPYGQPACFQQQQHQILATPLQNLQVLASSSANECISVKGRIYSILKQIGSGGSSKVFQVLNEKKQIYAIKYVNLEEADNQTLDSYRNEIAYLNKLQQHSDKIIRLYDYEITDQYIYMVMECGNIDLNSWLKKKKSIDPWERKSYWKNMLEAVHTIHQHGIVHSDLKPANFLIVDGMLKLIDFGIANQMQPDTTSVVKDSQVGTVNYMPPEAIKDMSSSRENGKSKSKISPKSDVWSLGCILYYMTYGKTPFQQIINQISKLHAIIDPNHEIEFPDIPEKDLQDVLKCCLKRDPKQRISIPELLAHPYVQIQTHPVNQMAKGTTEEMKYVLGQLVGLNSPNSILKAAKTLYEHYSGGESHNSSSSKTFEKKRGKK

ULK3 (human) = ULK3 (human) (UniProt Q6PHR2)

Measured: Kd

Chain of PAK3 (human) (O75914 whole entry, looked up): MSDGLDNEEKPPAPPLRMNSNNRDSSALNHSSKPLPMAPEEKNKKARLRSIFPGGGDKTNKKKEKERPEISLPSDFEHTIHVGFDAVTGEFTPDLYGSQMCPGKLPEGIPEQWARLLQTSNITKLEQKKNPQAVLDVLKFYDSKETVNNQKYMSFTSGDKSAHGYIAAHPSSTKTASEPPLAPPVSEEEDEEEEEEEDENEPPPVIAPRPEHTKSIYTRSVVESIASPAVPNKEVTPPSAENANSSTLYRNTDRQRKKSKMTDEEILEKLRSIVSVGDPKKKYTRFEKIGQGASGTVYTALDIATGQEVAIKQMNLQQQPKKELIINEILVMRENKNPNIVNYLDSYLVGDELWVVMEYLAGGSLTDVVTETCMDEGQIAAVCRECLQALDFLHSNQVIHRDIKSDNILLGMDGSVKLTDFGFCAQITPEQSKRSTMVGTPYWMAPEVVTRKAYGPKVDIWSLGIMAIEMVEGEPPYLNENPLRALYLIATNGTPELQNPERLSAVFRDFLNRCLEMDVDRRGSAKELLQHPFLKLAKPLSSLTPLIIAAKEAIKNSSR

O=C1c2ccccc2-c2n[nH]c3cccc1c23
> 10 µM: CSNK1G2 (human) | FRK (human) | MAPK11 (human) | PAK3 (human) | STK36 (human)

Oc1ccc(-c2nc(-c3ccc(F)cc3)c(-c3ccncc3)[nH]2)cc1
> 10 µM: AAK1 (human) | AURKC (human) | BMP2K (human) | CAMK2B (human) | CDK2 (human) | CDK5 (human) | CLK4 (human) | DAPK2 (human) | DAPK3 (human) | MAP4K5 (human) | MKNK2 (human) | PHKG2 (human) | PLK4 (human) | RPS6KA2 KD1 (human) | STK17A (human) | STK3 (mouse) | STK4 (human) | TTK (human) | ULK3 (human)
